Measured values as given in US9789181B2, “PAN-DR binding polypeptides and uses thereof” (Epimmune Inc., priority 2009, dated 2017).
Where no end group is shown, it is not given here.

molecular target: purified HLA DRB1 *0701 (Homo sapiens, UniProt P01903+P01911, A100R/A102G/A103Q/D57E/D86V/E43K/F76Y/K127E/L162R/M171V/P40G/Q125H/Q99D/R33Q/R42Y/R54Q/S133A/S66F/T210M/V115G/Y107V/Y59L/Y89S); test: IC50nM to purified HLA | DRB1 *0701
Description: (§1) Table printed on a drawing sheet, FIG. 1
Head of the field: IC50nM to purified HLA | DRB1 *0701
(§2) First copying reader's note: The comma is the decimal sign and the point a thousands separator (e.g. 21.831); some values are printed bold or italic and some SEQ ID NOs underlined, with no legend on the sheet.
Where the first naming reader finds the target: head: IC50nM to purified HLA | DRB1 *0701

For AAAHFVAAWTLHAAA [SEQ ID NO: 26], the IC50 was 53 nM.

molecular target: HLA DRB1 *0802 (Homo sapiens, UniProt P01903+P01911, A100R/A103L/A169T/F76Y/H45Y/I96F/K41T/L162R/M171V/P40S/Q125H/Q178H/Q39Y/Q99D/R218S/R42G/S66Y/V115G/W38E); test: IC50nM to purified HLA | DRB1 *0802
Description: (§3) Table printed on a drawing sheet, FIG. 1 (contd.)
(§4) Head of the field: IC50nM to purified HLA | DRB1 *0802
(§5) First copying reader's note: Continued from the preceding sheet of FIG. 1; decimal commas are used, the analog names give the substituted residues and positions in PADRE, and some values are printed in italics or bold and some SEQ ID NOs bold and underlined without a legend on this sheet.
(§6) Where the first naming reader finds the target: head: IC50nM to purified HLA | DRB1 *0802

AAAHFVAAFTLKAEA [SEQ ID NO: 38] and AAANFVAAWTLHAAA [SEQ ID NO: 51] are within 1.5-fold of each other in IC50: 19 nM for the first, 13 nM for the second.

Going from AAANFVAAWTLKAAA [SEQ ID NO: 50] to AAAEFVAANTLHAAA [SEQ ID NO: 49], the IC50 rises from 8.5 nM to 37 nM (4.4-fold). The first is the more potent here.

With AAAHFVAAFTLHAAA [SEQ ID NO: 28] the IC50 was 11 nM.

molecular target: HLA DRB1 *0101 (Homo sapiens, UniProt P01903+P01911, A100R/D57E/F55L/F60I/F76Y/I96L/L162R/M171V/P40L/Q125E/R42F/V115G/Y59C); test: IC50nM to purified HLA | DRB1 *0101
Description: as §3
(§7) Head of the field: IC50nM to purified HLA | DRB1 *0101
as §5
(§8) Where the first naming reader finds the target: head: IC50nM to purified HLA | DRB1 *0101

AAANFVAAWTLHAAA [SEQ ID NO: 51] and AAANFVAAWTLKAAA [SEQ ID NO: 50] are within 1.5-fold of each other in IC50: 4.5 nM for the first, 4.4 nM for the second.

First: AAAEFVAANTLHAAA [SEQ ID NO: 49]
Second: AAAHFVAAFTLHAAA [SEQ ID NO: 28]
The IC50 of the first is 2.2-fold higher: 9 nM for the first, 4 nM for the second. The second is the more potent here.

molecular target: HLA DRB4 *0101 (Homo sapiens, UniProt P01903+P13762, G164S); test: IC50nM to purified HLA | DRB4 *0101
Sequence (P01903 26-254 limits assumed): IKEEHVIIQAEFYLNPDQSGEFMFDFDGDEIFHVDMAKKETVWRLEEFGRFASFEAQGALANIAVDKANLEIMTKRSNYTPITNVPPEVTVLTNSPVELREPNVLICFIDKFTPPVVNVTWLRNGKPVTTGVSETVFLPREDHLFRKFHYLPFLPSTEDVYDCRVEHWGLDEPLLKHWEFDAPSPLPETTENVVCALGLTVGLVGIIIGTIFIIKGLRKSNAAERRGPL
Sequence (P13762 whole entry G164S): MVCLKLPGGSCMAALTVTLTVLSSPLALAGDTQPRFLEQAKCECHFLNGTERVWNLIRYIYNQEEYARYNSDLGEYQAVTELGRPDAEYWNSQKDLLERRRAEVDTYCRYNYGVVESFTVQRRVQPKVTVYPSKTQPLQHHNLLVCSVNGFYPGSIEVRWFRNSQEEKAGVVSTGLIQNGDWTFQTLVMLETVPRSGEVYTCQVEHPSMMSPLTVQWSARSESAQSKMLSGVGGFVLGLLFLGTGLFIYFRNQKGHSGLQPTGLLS
Description: as §3
(§9) Head of the field: IC50nM to purified HLA | DRB4 *0101
as §5
(§10) Where the first naming reader finds the target: head: IC50nM to purified HLA | DRB4 *0101

Compared with AAANFVAAWTLHAAA [SEQ ID NO: 51], AAAEFVAANTLHAAA [SEQ ID NO: 49] is 3.5-fold higher in IC50: 253 nM for the first, 878 nM for the second. The first is the more potent here.

For AAAHFVAAFTLHAAA [SEQ ID NO: 28], the IC50 was 100 nM.

molecular target: HLA DRB1 *1501 (Homo sapiens, UniProt P01903+P01911); test: IC50nM to purified HLA | DRB1 *1501
Description: as §3
Head of the field: IC50nM to purified HLA | DRB1 *1501
as §5
Where the first naming reader finds the target: head: IC50nM to purified HLA | DRB1 *1501

Compared with AAAHFVAAFTLKAEA [SEQ ID NO: 38], AAANFVAAWTLHAAA [SEQ ID NO: 51] is 3.1-fold lower in IC50: 31 nM for the first, 10 nM for the second. The second is the more potent here.

Compared with AAANFVAAWTLKAAA [SEQ ID NO: 50], AAAEFVAANTLHAAA [SEQ ID NO: 49] is 11-fold higher in IC50: 12 nM for the first, 137 nM for the second. The first is the more potent here.

With AAAHFVAAFTLHAAA [SEQ ID NO: 28] the IC50 was 13 nM.

molecular target: purified HLA DRB1 *1302 (Homo sapiens, UniProt P01903+P01911, A100E/A169T/K41T/L162R/M171V/P40S/Q125H/Q178H/Q39Y/Q99D/R42S/S66N/T262R/V115G/W38E/Y61H); test: IC50nM to purified HLA | DRB1 *1302
Sequence (P01903 26-254 limits assumed, other chains not shown): as the sequence (P01903 26-254 limits assumed) above
Description: as §1
(§11) Head of the field: IC50nM to purified HLA | DRB1 *1302
as §2
(§12) Where the first naming reader finds the target: head: IC50nM to purified HLA | DRB1 *1302

Work on AAAHFVAAWTLHAAA [SEQ ID NO: 26] yielded an IC50 of 1190 nM.

molecular target: HLA DRB1 *0301 (Homo sapiens, UniProt P01903+P01911, A100K/A102G/A103R/A169T/F55Y/I96L/K41T/L162R/M171V/P40S/Q125H/Q178H/Q39Y/R42S/S66N/T106N/T262R/W38E/Y61H); test: IC50nM to purified HLA | DRB1 *0301
Sequence (P01903 26-254 limits assumed, other chains not shown): as the sequence (P01903 26-254 limits assumed) above
Description: as §3
Head of the field: IC50nM to purified HLA | DRB1 *0301
as §5
Where the first naming reader finds the target: head: IC50nM to purified HLA | DRB1 *0301

Going from AAANFVAAWTLHAAA [SEQ ID NO: 51] to AAANFVAAWTLKAAA [SEQ ID NO: 50], the IC50 rises from 147 nM to 372 nM (2.5-fold). The first is the more potent here.

With AAAHFVAAFTLHAAA [SEQ ID NO: 28] the IC50 was 228 nM.

molecular target: HLA DRB1 *0404 (Homo sapiens, UniProt P01903+P01911, A100R/A169T/F76Y/I96L/K127E/L162R/M171V/N62H/P40V/Q125Y/R42H/S133A/S149N/S66Y/V209L/W38E); test: IC50nM to purified HLA | DRB1 *0404
Description: as §3
Head of the field: IC50nM to purified HLA | DRB1 *0404
as §5
Where the first naming reader finds the target: head: IC50nM to purified HLA | DRB1 *0404

AAAHFVAAFTLKAEA [SEQ ID NO: 38] and AAANFVAAWTLKAAA [SEQ ID NO: 50] are within 1.5-fold of each other in IC50: 8.1 nM for the first, 5.9 nM for the second.

Compared with AAAEFVAANTLHAAA [SEQ ID NO: 49], AAAHFVAAFTLHAAA [SEQ ID NO: 28] is 2.2-fold lower in IC50: 6.9 nM for the first, 3.1 nM for the second. The second is the more potent here.

molecular target: HLA DRB1 *0405 (Homo sapiens, UniProt P01903+P01911, A100R/A169T/D86S/F76Y/I96L/K127E/L162R/M171V/N62H/P40V/Q125Y/R42H/S133A/S149N/S66Y/V115G/V209L/W38E); test: IC50nM to purified HLA | DRB1 *0405
Description: as §3
Head of the field: IC50nM to purified HLA | DRB1 *0405
as §5
Where the first naming reader finds the target: head: IC50nM to purified HLA | DRB1 *0405

AAAHFVAAFTLKAEA [SEQ ID NO: 38] and AAANFVAAWTLHAAA [SEQ ID NO: 51] are within 1.5-fold of each other in IC50: 8.1 nM for the first, 7.6 nM for the second.

Going from AAANFVAAWTLKAAA [SEQ ID NO: 50] to AAAEFVAANTLHAAA [SEQ ID NO: 49], the IC50 rises from 18 nM to 44 nM (2.4-fold).

molecular target: HLA DRB1 *0401 (Homo sapiens, UniProt P01903+P01911, A100K/A169T/F76Y/I96L/K127E/L162R/M171V/N62H/P40V/Q125Y/R42H/S133A/S149N/S66Y/V115G/V209L/W38E); test: IC50nM to purified HLA | DRB1 *0401
Description: as §3
Head of the field: IC50nM to purified HLA | DRB1 *0401
as §5
Where the first naming reader finds the target: head: IC50nM to purified HLA | DRB1 *0401

Compared with AAAHFVAAFTLKAEA [SEQ ID NO: 38], AAAHFVAAFTLHAAA [SEQ ID NO: 28] is 2.9-fold lower in IC50: 6.4 nM for the first, 2.2 nM for the second.

molecular target: purified HLA DRB1 *0101 (Homo sapiens, UniProt P01903+P01911, A100R/D57E/F55L/F60I/F76Y/I96L/L162R/M171V/P40L/Q125E/R42F/V115G/Y59C); test: IC50nM to purified HLA | DRB1 *0101
Description: as §1, §7, §2, §8

With AAAHFVAAWTLHAAA [SEQ ID NO: 26] the IC50 was 4.2 nM.

molecular target: HLA DRB1 *1101 (Homo sapiens, UniProt P01903+P01911, A100R/A169T/A87E/I96F/K41T/L162R/M171V/P40S/Q125H/Q178H/Q39Y/Q99D/R42S/S66Y/T262R/V115G/W38E); test: IC50nM to purified HLA | DRB1 *1101
Sequence (P01903 26-254 limits assumed, other chains not shown): as the sequence (P01903 26-254 limits assumed) above
Description: as §3
Head of the field: IC50nM to purified HLA | DRB1 *1101
as §5
Where the first naming reader finds the target: head: IC50nM to purified HLA | DRB1 *1101

Going from AAAHFVAAFTLKAEA [SEQ ID NO: 38] to AAANFVAAWTLHAAA [SEQ ID NO: 51], the IC50 falls from 41 nM to 11 nM (3.7-fold). The second is the more potent here.

Going from AAANFVAAWTLKAAA [SEQ ID NO: 50] to AAAEFVAANTLHAAA [SEQ ID NO: 49], the IC50 rises from 14 nM to 70 nM (5-fold).

Sequence AAAHFVAAFTLHAAA [SEQ ID NO: 28] has an IC50 of 8.1 nM.

molecular target: purified HLA DRB1 *0802 (Homo sapiens, UniProt P01903+P01911, A100R/A103L/A169T/F76Y/H45Y/I96F/K41T/L162R/M171V/P40S/Q125H/Q178H/Q39Y/Q99D/R218S/R42G/S66Y/V115G/W38E); test: IC50nM to purified HLA | DRB1 *0802
Description: as §1, §4, §2, §6

With AAAHFVAAWTLHAAA [SEQ ID NO: 26] the IC50 was 9.3 nM.

molecular target: HLA DRB5 *0101 (Homo sapiens, UniProt P01903+Q30154); test: IC50nM to purified HLA | DRB5 *0101
Description: as §3
Head of the field: IC50nM to purified HLA | DRB5 *0101
as §5
Where the first naming reader finds the target: head: IC50nM to purified HLA | DRB5 *0101

Going from AAAHFVAAFTLKAEA [SEQ ID NO: 38] to AAANFVAAWTLKAAA [SEQ ID NO: 50], the IC50 falls from 19 nM to 8.7 nM (2.2-fold). The second is the more potent here.

molecular target: purified HLA DRB4 *0101 (Homo sapiens, UniProt P01903+P13762, G164S); test: IC50nM to purified HLA | DRB4 *0101
Sequence (P01903 26-254 limits assumed): as above
Sequence (P13762 whole entry G164S): as the sequence (P13762 whole entry G164S) above
Description: as §1, §9, §2, §10

AAAHFVAAWTLHAAA [SEQ ID NO: 26] showed an IC50 of 267 nM.

molecular target: HLA DRB1 *1302 (Homo sapiens, UniProt P01903+P01911, A100E/A169T/K41T/L162R/M171V/P40S/Q125H/Q178H/Q39Y/Q99D/R42S/S66N/T262R/V115G/W38E/Y61H); test: IC50nM to purified HLA | DRB1 *1302
Sequence (P01903 26-254 limits assumed, other chains not shown): as the sequence (P01903 26-254 limits assumed) above
Description: as §3, §11, §5, §12

In the case of AAAHFVAAFTLKAEA [SEQ ID NO: 38], the IC50 is reported as 801 nM.

molecular target: HLA DRB1 *0901 (Homo sapiens, UniProt P01903+P01911, A100R/A103E/D57H/D86V/F55Y/F60I/F76Y/I96F/K127E/L162R/M171V/P40D/Q125H/Q99R/R33Q/R42F/S133A/S66N/T210M/V115G/W38K/Y107V/Y59G/Y89S); test: IC50nM to purified HLA | DRB1 *0901
Description: as §3
Head of the field: IC50nM to purified HLA | DRB1 *0901
as §5
Where the first naming reader finds the target: head: IC50nM to purified HLA | DRB1 *0901

Going from AAAHFVAAFTLKAEA [SEQ ID NO: 38] to AAAEFVAANTLHAAA [SEQ ID NO: 49], the IC50 rises from 46 nM to 87 nM (1.9-fold). The first is the more potent here.

AAAHFVAAFTLHAAA [SEQ ID NO: 28] showed an IC50 of 24 nM.
